Source: the supplement of paper PMC11061612

How the values were obtained:
Assay in all cases: Bliss excess, mean over the matrix (fraction); higher = more synergy
[1] = system: A3-KAW (B-Cell Non-Hodgkin's Lymphoma)
Summary of the method: (§1)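 After 24 hours at 37°C and 5% CO2 in 1536-well plates, cells in DMEM/F12 or RPMI plus 10% FBS received two-drug dose matrices for 72 hours. Viability came from CellTiter-Glo 2.0 luminescence and was scaled as inhibition, anchored at 0 by vehicle wells and at 1 by blank wells. Combination Emax is taken as the second-highest inhibition in the matrix, and Bliss excess as the observed combination effect less EA + EB − EA·EB, with EA and EB the single-agent effects.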

[2] = system: A549 (Lung Adenocarcinoma)
Summary of the method: as §1

[3] = system: BICR22 (Oral Cavity Carcinoma)
Summary of the method: as §1

[4] = system: CAPAN-2 (Pancreatic Carcinoma)
Summary of the method: as §1

[5] = system: CCK-81 (Colorectal Carcinoma)
Summary of the method: as §1

[6] = system: COLO-824 (Breast Carcinoma)
Summary of the method: as §1

[7] = system: ECC10 (Gastric Carcinoma)
Summary of the method: as §1

[8] = system: Hs-445 (Non-Cancerous)
Summary of the method: as §1

[9] = system: JSC-1 (B-Cell Non-Hodgkin's Lymphoma)
Summary of the method: as §1

[10] = system: KARPAS-422 (B-Cell Non-Hodgkin's Lymphoma)
Summary of the method: as §1

[11] = system: LN-405 (Glioblastoma)
Summary of the method: as §1

[12] = system: NCI-H1650 (Lung Adenocarcinoma)
Summary of the method: as §1

[13] = system: NCI-H1666 (Lung Adenocarcinoma)
Summary of the method: as §1

[14] = system: NCI-H1693 (Lung Adenocarcinoma)
Summary of the method: as §1

[15] = system: NCI-H2066 (Squamous Cell Lung Carcinoma)
Summary of the method: as §1

[16] = system: NCI-H2141 (Small Cell Lung Carcinoma)
Summary of the method: as §1

[17] = system: SISO (Cervical Carcinoma)
Summary of the method: as §1

[18] = system: SK-MES-1 (Squamous Cell Lung Carcinoma)
Summary of the method: as §1

[19] = system: SK-MG-1 (Low Grade Glioma)
Summary of the method: as §1

[20] = system: U-2-OS (Osteosarcoma)
Summary of the method: as §1

Row | Structure (SMILES) | Bliss excess [1] | Bliss excess [2] | Bliss excess [3] | Bliss excess [4] | Bliss excess [5] | Bliss excess [6] | Bliss excess [7] | Bliss excess [8] | Bliss excess [9] | Bliss excess [10] | Bliss excess [11] | Bliss excess [12] | Bliss excess [13] | Bliss excess [14] | Bliss excess [15] | Bliss excess [16] | Bliss excess [17] | Bliss excess [18] | Bliss excess [19] | Bliss excess [20]
1 | COc1cccc(OCCCN)c1-c1cc(Nc2cnc(C#N)cn2)n[nH]1 [Prexasertib] + O=C(c1cc(Cc2n[nH]c(=O)c3ccccc23)ccc1F)N1CCN(C(=O)C2CC2)CC1 [Olaparib] (first compound max 1 µM, 7x7, partner max 10 µM) | -0.0146 | -0.0109 | -0.0685 | -0.169 | -0.12 | -0.0481 | -0.0685 | -0.0358 | -0.0179 | -0.044 | 0.0837 | -0.0152 | -0.0096 | -0.1 | -0.0492 | -0.0509 | 0.0003 | -0.0174 | 0.0026 | -0.0478
2 | COc1cc2c(cc1OCCCCCOc1cc3c(cc1OC)C(=O)N1C=C(C)C[C@H]1C=N3)N=C[C@@H]1CC(C)=CN1C2=O [SG3199] + O=C(c1cc(Cc2n[nH]c(=O)c3ccccc23)ccc1F)N1CCN(C(=O)C2CC2)CC1 [Olaparib] (first compound max 0.001 µM, 7x7, partner max 10 µM) | -0.0286 | -0.0226 | -0.0473 | -0.0506 | 0.0003 | -0.03 | -0.0238 | -0.0116 | -0.0344 | -0.0044 | 0.0323 | -0.0575 | -0.0477 | -0.0209 | -0.0457 | -0.0682 | -0.0198 | -0.0267 | -0.0009 | -0.0203
3 | CCc1c2c(nc3ccc(O)cc13)-c1cc3c(c(=O)n1C2)COC(=O)[C@]3(O)CC [SN-38] + CN(C)CCCOc1ccc(-c2ccc3ncc4c(c3c2)n(C2CCOCC2)c(=O)n4C)cn1 [AZD0156] (first compound max 0.3 µM, 7x7, partner max 1 µM) | 0.0988 | 0.0128 | 0.0243 | -0.0468 | 0.135 | 0.0473 | -0.143 | -0.018 | -0.0046 | -0.0862 | -0.0028 | -0.0079 | 0.0313 | -0.0099 | -0.0517 | 0.0219 | 0.0978 | -0.0272 | 0.23 | -0.0193
4 | C[C@@H](c1ccc2nccn2c1)n1nnc2ncc(-c3cnn(C)c3)nc21 [Savolitinib] + CC1(C)CCC(CN2CCN(c3ccc(C(=O)NS(=O)(=O)c4ccc(NCC5CCOCC5)c([N+](=O)[O-])c4)c(Oc4cnc5[nH]ccc5c4)c3)CC2)=C(c2ccc(Cl)cc2)C1 [Venetoclax] (first compound max 1 µM, 7x7, partner max 1 µM) | -0.023 | -0.0378 | -0.0353 | -0.0682 | -0.0615 | -0.0178 | 0.0258 | -0.0642 | -0.0638 | -0.0282 | -0.0464 | -0.0716 | -0.0595 | -0.0639 | -0.0524 | -0.108 | -0.0438 | -0.0505 | -0.0549 | -0.0397
5 | C[C@@H](c1ccc2nccn2c1)n1nnc2ncc(-c3cnn(C)c3)nc21 [Savolitinib] + Cc1c2c(nn1C)CSCc1cc(n(C)n1)CSc1cc(c3ccccc3c1)OCCCc1c(C(=O)O)n(C)c3c-2c(Cl)ccc13 [AZD5991] (first compound max 1 µM, 7x7, partner max 1 µM) | -0.0499 | -0.0279 | -0.0321 | -0.0206 | -0.0402 | -0.0212 | 0.0229 | -0.0407 | -0.0434 | -0.0462 | 0.0023 | -0.0634 | -0.0577 | -0.0684 | -0.0455 | -0.0107 | -0.0596 | -0.0361 | -0.0648 | -0.0271
6 | Cn1cnc2c(F)c(Nc3ccc(Br)cc3Cl)c(C(=O)NOCCO)cc21 [Selumetinib] + C=CCn1c(=O)c2cnc(Nc3ccc(N4CCN(C)CC4)cc3)nc2n1-c1cccc(C(C)(C)O)n1 [AZD1775] (first compound max 10 µM, partner max 1 µM) | -0.0575 | -0.0741 | -0.0362 | 0.033 | -0.0167 | -0.105 | -0.0058 | -0.133 | -0.0432 | -0.0508 | -0.0962 | -0.0792 | -0.0542 | -0.0092 | -0.0776 | -0.0682 | -0.0457 | -0.0469 | -0.106 | -0.0328
7 | Cn1cnc2c(F)c(Nc3ccc(Br)cc3Cl)c(C(=O)NOCCO)cc21 [Selumetinib] + CC(C)n1c(=O)n(C)c2cnc3cc(F)c(-c4ccc(OCCCN5CCCCC5)nc4)cc3c21 [AZD1390] (first compound max 10 µM, 7x7, partner max 0.3 µM) | 0.0678 | -0.0534 | -0.027 | -0.0005 | 0.0157 | -0.018 | 0.0038 | -0.0425 | -0.0477 | -0.032 | -0.0518 | -0.0572 | 0.0058 | -0.0814 | -0.061 | -0.0386 | -0.0395 | -0.0487 | -0.049 | -0.0464
8 | Cn1cnc2c(F)c(Nc3ccc(Br)cc3Cl)c(C(=O)NOCCO)cc21 [Selumetinib] + CCN(CCO)CCCOc1ccc2c(Nc3cc(CC(=O)Nc4cccc(F)c4)[nH]n3)ncnc2c1 [AZD2811] (first compound max 10 µM, 7x7, partner max 1 µM) | 0.165 | 0.0248 | -0.0731 | 0.0517 | 0.0101 | -0.0218 | -0.094 | 0.013 | 0.203 | 0.0206 | -0.0367 | -0.0333 | -0.0506 | -0.0196 | -0.0322 | -0.0196 | 0.015 | -0.048 | -0.0245 | -0.0111
